Test results: the SangsterLogP compilation

Experiments:
[1] = method code SF-CR, from PMID: 582926
[2] = method code SF-RC, from PMID: 582926
[3] = method code SF-AS, from PMID: 582926

SMILES	logP [1]	logP [2]	other results
CO[C@H]1C[C@H](O[C@H]2CCC3(CO)C4CCC5(C)[C@@H](C6=CC(=O)OC6)CCC5(O)C4CCC3(O)C2)O[C@H](C)[C@H]1O (stereo not given in full)	0.56		
CC12CCC(OC3OC(CO)C(O)C(O)C3O)CC1CCC1C2CCC2(C)C(C3=CC(=O)OC3)CCC12O (stereo not given)	-0.64		
C[C@H]1O[C@@H](O[C@H]2CC[C@]3(C=O)[C@H]4CC[C@]5(C)[C@@H](C6=CC(=O)OC6)CC[C@]5(O)[C@@H]4CC[C@]3(O)C2)C[C@H](O)[C@@H]1O	0.3		
C[C@]12CC[C@H](O)C[C@H]1CC[C@H]1C3=CC[C@H](C4=CC(=O)OC4)[C@@]3(C)CC[C@@H]12		2.52	
CC(=O)OC1CC2(O)C3CCC4CC(O)CCC4(C)C3CCC2(C)C1C1=CC(=O)OC1 (stereo not given)		1.93	
CO[C@H]1CC(O[C@H]2CC[C@@]3(C)[C@H](CC[C@@H]4[C@@H]3CC[C@]3(C)[C@@H](C5=CC(=O)OC5)[C@@H](OC(C)=O)C[C@]43O)C2)O[C@@H](C)[C@@H]1OC(C)=O (stereo not given in full)		2.95	
CC(=O)OC1CC(OC2CCC3(C)C(CCC4C3CC(O)C3(C)C(C5=CC(=O)OC5)CCC43O)C2)OC(C)C1OC1CC(O)C(OC2CC(O)C(O)C(C)O2)C(C)O1 (stereo not given)	1.71		
CC1OC(OC2CCC3(C)C(CCC4C3CC(O)C3(C)C(C5=CC(=O)OC5)CCC43O)C2)CC(O)C1OC1CC(O)C(OC2CC(O)C(OC3OC(C(=O)O)C(O)C(O)C3O)C(C)O2)C(C)O1 (stereo not given)		-1.77	
C[C@@H]1O[C@@H](O[C@H]2CC[C@]3(C=O)[C@H]4CC[C@]5(C)[C@@H](C6=CC(=O)OC6)CC[C@]5(O)[C@@H]4CC[C@]3(O)C2)[C@H](O)[C@H](O)[C@H]1O	-0.48		
C[C@@H]1O[C@@H](O[C@@H]2C=C3CC[C@@H]4[C@H](CC[C@]5(C)[C@@H](c6ccc(=O)oc6)CC[C@]45O)[C@@]3(C)CC2)[C@H](O)[C@H](O)[C@H]1O			logP [3]: 2.48
CC1O[C@H](O[C@H]2CC[C@]3(CO)C4CC[C@]5(C)[C@@H](C6=CC(=O)OC6)CC[C@]5(O)C4CC[C@]3(O)C2)C(O)C(O)[C@@H]1O (stereo not given in full)		-0.62	
CC(=O)O[C@H]1C[C@]2(O)[C@@H]3CC[C@@H]4C[C@@H](O[C@H]5C[C@H](O)[C@H](O[C@H]6C[C@H](O)[C@H](O[C@H]7C[C@H](O)[C@H](O)[C@@H](C)O7)[C@@H](C)O6)[C@@H](C)O5)CC[C@]4(C)[C@H]3CC[C@]2(C)[C@H]1C1=CC(=O)OC1	2.15		
CC(=O)OC1CC(OC2C(O)CC(OC3C(O)CC(OC4CCC5(C)C(CCC6C5CC(O)C5(C)C(C7=CC(=O)OC7)CCC65O)C4)OC3C)OC2C)OC(C)C1O (stereo not given)		1.97	
CO[C@H]1C[C@H](O[C@H]2CC[C@@]3(C)[C@H](CC[C@@H]4[C@@H]3CC[C@]3(C)[C@@H](C5=CC(=O)OC5)CC[C@]43O)C2)O[C@@H](C)[C@@H]1O		2.37	
CC(=O)O[C@H]1[C@@H](OC(C)=O)C[C@H](O[C@H]2[C@@H](OC(C)=O)C[C@H](O[C@H]3[C@@H](OC(C)=O)C[C@H](O[C@H]4CC[C@@]5(C)[C@H](CC[C@@H]6[C@@H]5CC[C@]5(C)[C@@H](C7=CC(=O)OC7)[C@@H](OC(C)=O)C[C@]65O)C4)O[C@@H]3C)O[C@@H]2C)O[C@@H]1C	2.85		
C[C@H]1O[C@@H](O[C@H]2[C@@H](O)C[C@H](O[C@H]3CC[C@@]4(C)[C@@H](CC[C@@H]5[C@@H]4CC[C@]4(C)[C@@H](C6=CC(=O)OC6)CC[C@]54O)C3)O[C@@H]2C)C[C@H](O)[C@@H]1O		2.15	
CC(=O)OC1C[C@@H](OC2C(O)C[C@@H](OC3C(O)C[C@@H](OC4CC[C@@]5(C)[C@H](CC[C@H]6[C@H]5CC(O)[C@]5(C)C(C7=CC(=O)OC7)CC[C@]65O)C4)OC3C)OC2C)OC(C)C1O[C@H]1OC(CO)C(O)C(O)C1O (stereo not given in full)		0.07	
C[C@H]1O[C@@H](O[C@H]2[C@@H](O)C[C@H](O[C@H]3[C@@H](O)C[C@H](O[C@H]4CC[C@@]5(C)[C@H](CC[C@@H]6[C@@H]5CC[C@]5(C)[C@@H](C7=CC(=O)OC7)[C@@H](O)C[C@]65O)C4)O[C@@H]3C)O[C@@H]2C)C[C@H](O)[C@@H]1O	1.66		
CC1OC(OC2CCC3(C)C(CCC4C3CCC3(C)C(C5=CC(=O)OC5)C(O)CC43O)C2)CC(O)C1O (stereo not given)		1.76	
C[C@H]1O[C@@H](O[C@H]2CC[C@@]3(C)[C@H](CC[C@@H]4[C@@H]3CC[C@]3(C)[C@@H](C5=CC(=O)OC5)CC[C@]43O)C2)C[C@H](O)[C@@H]1O[C@H]1C[C@H](O)[C@H](O[C@H]2C[C@H](O)[C@H](O[C@@H]3O[C@H](C(=O)O)[C@@H](O)[C@H](O)[C@H]3O)[C@@H](C)O2)[C@@H](C)O1		-1.1	
CO[C@H]1[C@H](O)[C@H](O[C@H]2CC[C@@]3(C)[C@H](CC[C@@H]4[C@@H]3CC[C@]3(C)[C@@H](C5=CC(=O)OC5)CC[C@]43O)C2)O[C@@H](C)[C@@H]1O	2.1		
CC(=O)O[C@H]1C[C@H](O[C@H]2CC[C@@]3(C)[C@H](CC[C@@H]4[C@@H]3C[C@@H](O)[C@]3(C)[C@@H](C5=CC(=O)OC5)CC[C@]43O)C2)O[C@H](C)[C@H]1O[C@H]1C[C@H](OC(C)=O)[C@H](O[C@H]2C[C@H](O)[C@H](O)[C@@H](C)O2)[C@@H](C)O1	2.45		
CC1OC(OC2CCC3(CO)C4CCC5(C)C6(C=CC(=O)OC6)CCC5(O)C4CCC3(O)C2)CC(O)C1O (stereo not given)	0.15		
C[C@@H]1O[C@@H](O[C@H]2CC[C@@]3(C)[C@H](CC[C@@H]4[C@@H]3CC[C@]3(C)[C@@H](C5=CC(=O)OC5)CC[C@]43O)C2)[C@H](O)[C@H](O)[C@H]1O	2.1		
CC(=O)O[C@H]1C[C@H](O[C@H]2[C@@H](O)C[C@H](O[C@H]3[C@@H](O)C[C@H](O[C@H]4CC[C@@]5(C)[C@@H](CC[C@@H]6[C@H]5CC[C@]5(C)[C@@H](C7=CC(=O)OC7)CC[C@]65O)C4)O[C@@H]3C)O[C@@H]2C)O[C@H](C)[C@H]1O[C@@H]1O[C@H](CO)[C@@H](O)[C@H](O)[C@H]1O		1.23	
CC1OC(OC2CCC3(C)C(CCC4C3CCC3(C)C(C5=CC(=O)OC5)CCC43O)C2)CC(O)C1O (stereo not given)		2.48	
CO[C@H]1CC(O[C@H]2CC[C@@]3(C)[C@H](CC[C@@H]4[C@@H]3CC[C@]3(C)[C@@H](C5=CC(=O)OC5)[C@@H](OC(C)=O)C[C@]43O)C2)O[C@H](C)C1=O (stereo not given in full)		1.65	
CO[C@H]1[C@@H](O)C[C@H](O[C@H]2[C@@H](O)C[C@H](O[C@H]3[C@@H](O)C[C@H](O[C@H]4CC[C@@]5(C)[C@H](CC[C@@H]6[C@@H]5C[C@@H](O)[C@]5(C)[C@@H](C7=CC(=O)OC7)CC[C@]65O)C4)O[C@@H]3C)O[C@@H]2C)O[C@@H]1C		1.73	
CO[C@H]1[C@H](O)[C@H](O[C@H]2CC[C@@]3(C=O)[C@H](CC[C@@H]4[C@@H]3CC[C@]3(C)[C@@H](C5=CC(=O)OC5)CC[C@]43O)C2)O[C@@H](C)[C@@H]1O	1.05		
COC1CC(OC2CC[C@@]3(C)[C@H](CC[C@@H]4[C@H]3CC[C@]3(C)C(C5=CC(=O)OC5)C(OC(C)=O)C[C@]43O)C2)OC(C)C1O (stereo not given in full)	2.26		
